System: hCLRN1^N48K-YFP; clrn1^+/+ larvae
Experiment: Larval survival/lethality by TG or ART dose and treatment duration
Type: in vivo, zebrafish
Settings: TG dosages higher than 1 μM or longer treatment duration
Description: Thapsigargin (TG, 1 mg, Sigma-Aldrich, #T9033) stock in 100% DMSO was diluted in E3 medium to make the required final concentration of the drug. Five different concentrations that were earlier reported to induce ER stress and are non-toxic or lower lethal dose (LD50) in the zebrafish (0.1, 0.5, 1.0, 2.5, 5 μM concentrations) were used in this study. A total of 25 larvae per dosage and treatment duration from the genotypes hCLRN1^N48K-YFP; clrn1^+/+ and hCLRN1-YFP; clrn1^+/+, no older than 72 hours post fertilization (hpf) at the start of the experiment, were placed in a well of 12-well uncoated culture plate (BD Falcon, Canaan, CT). […] Unadjusted 1 micron middle section images of four hair bundles per ML1 neuromast of larvae from TG treated and untreated groups were analyzed using Image J software version v. […] Quantification of YFP fluorescence intensity was carried out as described in the previous experiment for unconventional trafficking of hCLRN1^N48K-YFP by hGRASP55 cargos. […]
Arthemisinin (ART, 100 mg, Sigma-Aldrich, #361593) in 100% DMSO was diluted in E3 medium to make the final concentration. […] Quantification of YFP fluorescence intensity was carried out as described in the previous experiment for unconventional trafficking of hCLRN1^N48K-YFP by hGRASP55 cargos. […]

Structure (SMILES): C/C=C(/C)C(=O)O[C@H]1C(C)=C2[C@H]([C@@H]1OC(=O)CCCCCCC)[C@@](C)(OC(C)=O)C[C@H](OC(=O)CCC)[C@@]1(O)[C@H]2OC(=O)[C@@]1(C)O [TG, Thapsigargin]
- Lethality to larvae: lethal

Source: US11865103B2, “Methods of treating disorders associated with glycosylation defective proteins” (CASE WESTERN RESERVE UNIVERSITY, priority 2016, dated 2024)
